Assay results from patent US7556938B1, “Nucleic acids encoding potassium channel interactors” (Millennium Pharmaceuticals, Inc., priority 1998, dated 2009).

What was measured:
Kv4.2 = target: T1, Kv4.2 (Rattus norvegicus, UniProt Q63881); test: AA modulation of Kv4.2 current (Kv4.2 expressed alone) in CHO cells; type: cell-based; conditions: Kv4.2 alone, 10 μM AA
T1 construct: expressed in transfected cells; host or cells: CHO cells, transient transfection with GFP co-transfected
T1 sequence (Q63881 1-630): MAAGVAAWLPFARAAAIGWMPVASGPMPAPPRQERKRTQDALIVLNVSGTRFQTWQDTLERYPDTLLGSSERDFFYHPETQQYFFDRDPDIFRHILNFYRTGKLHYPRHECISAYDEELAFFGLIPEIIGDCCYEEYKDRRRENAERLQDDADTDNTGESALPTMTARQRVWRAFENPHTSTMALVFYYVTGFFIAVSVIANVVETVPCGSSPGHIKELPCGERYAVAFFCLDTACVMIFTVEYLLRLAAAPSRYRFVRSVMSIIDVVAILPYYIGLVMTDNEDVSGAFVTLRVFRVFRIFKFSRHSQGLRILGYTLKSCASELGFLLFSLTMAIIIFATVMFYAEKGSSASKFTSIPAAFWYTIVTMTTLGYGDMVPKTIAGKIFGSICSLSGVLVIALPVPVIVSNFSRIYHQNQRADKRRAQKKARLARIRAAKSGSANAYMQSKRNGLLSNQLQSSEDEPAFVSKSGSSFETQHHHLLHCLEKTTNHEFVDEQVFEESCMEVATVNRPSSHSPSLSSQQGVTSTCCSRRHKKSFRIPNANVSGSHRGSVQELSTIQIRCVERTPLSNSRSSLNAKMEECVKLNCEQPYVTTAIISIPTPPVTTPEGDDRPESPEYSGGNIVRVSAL
Description: (§1) HEK 293 and CHO cells were used for recordings 1-3 days after a transient transfection. Whole-cell currents were recorded from cells expressing GFP, identified by their green fluorescence. […] After Gigaseal and ruptured whole-cell configuration access, resistance was less than 10 MOhms. Whole-cell bath solutions were made from a 10× Hank's balanced salt solution (GibcoBRL) with the following final concentration (in mM): 138 NaCl, 5.4 KCl, 1.3 MgCl2, 1.3 CaCl2, 5.5 D-Glukos and 10 HEPES, pH 7.4. The intracellular electrode solution consisted of (in mM) 140 KCl, 10 HEPES, 10 EGTA, 0.5 MgCl2, pH 7.3. All chemicals were from Sigma (St. Louis, Mo.) or Fisher Scientific (Houston, Tex.). Membrane currents were recorded using a EPC9 patch-clamp amplifier (HEKA, Germany). Data were analyzed using Matlab (Natick, Ma), and leak subtracted if necessary. All experiments were done at room temperature. […]

Kv4.3 = test: Fatty acid modulation of Kv4.3 current (Kv4.3 alone) in Xenopus oocytes; type: cell-based, rat
Description: Frogs underwent no more than two surgeries and surgeries were performed by well established techniques. Frogs were anesthetized with ice. Total cRNA (1-10 ng) was injected into stage IV Xenopus oocytes that were harvested the previous day. The Xenopus oocytes were incubated in ND96 containing (in mM) 96 NaCl, 2 KCl, 1.8 CaCl2, 1 MgCl2, 5 HEPES, pH 7.6, plus (Gentamycin 50 μg/ml) at 18° C. Xenopus oocytes were studied 3-7 days after injection. The two-electrode voltage-clamp recordings were performed in ND96 solution using a TURBO TEC 03 Clamp Amplifier (ALA Scientific Instruments, Westbury, N.Y.). Both electrodes were filled with 3 M KCl and had electrode resistances ranging from 0.2-1 MOhm. The current signals were filtered at 1000 Hz before transferred on a PC (Gateway, Calif.) using the PULSE software (HEKA, Germany). In this Example, the hypothesis that […] were the missing auxiliary subunits that accounted for the above kinetic discrepancy was investigated by expressing Kv4 alone or together with […] in both CHO cells and Xenopus oocytes, and measuring their inactivation time constants (using art known techniques as described in, for example, An et al. (2000) Nature 403:553-6; Keros, S. and […]. Neuroscience 17: 3476-87; and Villarroel, A. and […]. Neuroscience 16:2522-32). The effects of different concentrations of arachidonic acid on Kv4/KChIP current was studied in Xenopus oocytes. Because the physiological concentrations of arachidonic acid are often under 10 μM (Needleman, et al., 1986 Annu Rev Biochem 55:69-102; Anderson and Welsh, 1990, Proc Natl Acad Sci USA 87:7334-8; Meves, 1994, Prog Neurobiol 43:175-86), arachidonic acid was tested in the 1-10 μM range. […] Further, the slope of amplitude reduction as a function of increasing concentrations was very similar with or without the presence of […]. […] Villarroel and Schwarz, (1996) J.

Kv4.2/KChIP1 = target: T2, Kv4.2/KChIP1 (Rattus norvegicus, UniProt Q63881); test: AA modulation of Kv4.2/KChIP1 current in CHO cells; type: cell-based; conditions: Kv4.2/KChIP1, 10 μM AA
T2 construct: expressed in transfected cells; host or cells: CHO cells
T2 sequence (Q63881 1-630): T1 sequence (Q63881 1-630)
T2 sequence (Q8R426 1-216 isoform Q8R426-2 partner): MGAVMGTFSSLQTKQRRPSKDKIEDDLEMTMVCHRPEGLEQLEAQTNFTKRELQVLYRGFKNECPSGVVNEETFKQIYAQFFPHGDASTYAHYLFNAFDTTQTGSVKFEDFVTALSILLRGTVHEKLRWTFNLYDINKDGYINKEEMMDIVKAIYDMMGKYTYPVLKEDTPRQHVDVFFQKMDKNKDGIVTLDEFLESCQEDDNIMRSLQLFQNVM
Description: as §1

Peak amplitude (pA ± SEM) (Kv4.2): 336 ± 82 pA | Inactivation time constant (ms ± SEM) (Kv4.2; listed as AA): 32 ± 2 ms | Peak amplitude (pA ± SEM) (Kv4.2/KChIP1): 2827 ± 496 pA | Inactivation time constant (ms ± SEM) (Kv4.2/KChIP1; listed as AA): 37 ± 3 ms
SMILES: CCCCC/C=C\C/C=C\C/C=C\C/C=C\CCCC(=O)O [arachidonic acid]
Inactivation time constant (ms ± SEM) (Kv4.3; Kv4.3 alone, 10 μM AA): 66 ± 6 ms | Peak amplitude (μA ± SEM) (Kv4.3; Kv4.3 alone, 10 μM AA): 13 ± 1 μA | block of Kv4.3 peak amplitude (Kv4.3; Kv4.3 alone, 10 μM fatty acid, vs no-fatty acid control): inhibited significantly | block of Kv4.3 peak amplitude (Kv4.3; Kv4.3 alone, 1-10 μM arachidonic acid): concentration-dependent block | effect on inactivation time constant (Kv4.3; absence of KChIP1, 1-10 μM arachidonic acid): unchanged at all arachidonic acid concentrations tested
